Assay results published in US7803930B2, “Antisense modulation of apolipoprotein B-expression” (Isis Pharmaceuticals, Inc., priority 2002, dated 2010).
e = 2'-O-(2-methoxyethyl) (MOE); d = 2'-deoxy (DNA)

Test system: human apolipoprotein B mRNA
Assay: Inhibition of human apolipoprotein B mRNA levels in HepG2 cells, quantitative real-time PCR
Type: cell-based
Conditions: HepG2 cells; for % inhibition of apolipoprotein B mRNA levels: normalized to untreated control, average of two experiments
Procedure, shortened: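 HepG2 cells at 80% confluency were transfected with antisense oligonucleotide using 3.75 μg/mL Lipofectin in Opti-MEM for 4-7 h and harvested 16-24 h after treatment. Apolipoprotein B mRNA was measured by real-time RT-PCR and normalized to GAPDH or RiboGreen total RNA. Percent inhibition came from untreated-control standard curves.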

[1] = Table 17 variable gap, 50 nM, averages from three experiments
[2] = Table 17 variable gap, 150 nM, averages from three experiments
[3] = 50 nm oligonucleotide, variable deoxy gap position
[4] = 150 nm oligonucleotide, variable deoxy gap position

308645 (antisense GCCTCAGTCTGCTTCGCGCC; 4-10-6 2'-MOE gapmer, phosphorothioate, chemistry not fully specified) [compound 308645]
% INHIB 50 nm [1]: 57% | % INHIB 150 nm [2]: 98%

308646 (antisense AGGTTACCAGCCACATGCAG; 4-10-6 2'-MOE gapmer, phosphorothioate, chemistry not fully specified) [compound 308646]
% INHIB 50 nm [3]: 50% | % INHIB 150 nm [4]: 76%

308647 (antisense GCCTCAGTCTGCTTCGCACC; 4-10-6 2'-MOE gapmer, phosphorothioate, chemistry not fully specified) [compound 308647]
% INHIB 50 nm [3]: 53% | % INHIB 150 nm [4]: 86%

308648 (antisense GCCTCAGTCTGCTTCGCGCC; 6-10-4 2'-MOE gapmer, phosphorothioate, chemistry not fully specified) [compound 308648]
% INHIB 50 nm [1]: 78% | % INHIB 150 nm [2]: 89%

308649 (antisense AGGTTACCAGCCACATGCAG; 6-10-4 2'-MOE gapmer, phosphorothioate, chemistry not fully specified) [compound 308649]
% INHIB 50 nm [3]: 68% | % INHIB 150 nm [4]: 91%

308650 (antisense GCCTCAGTCTGCTTCGCACC; 6-10-4 2'-MOE gapmer, phosphorothioate, chemistry not fully specified) [compound 308650]
% INHIB 50 nm [3]: 74% | % INHIB 150 nm [4]: 94%

308651 (antisense GCCTCAGTCTGCTTCGCGCC; 7-10-3 2'-MOE gapmer, phosphorothioate, chemistry not fully specified) [compound 308651]
% inhibition of apolipoprotein B mRNA levels (12.5 nM oligonucleotide): 57% | % inhibition of apolipoprotein B mRNA levels (37 nM oligonucleotide): 76% | % inhibition of apolipoprotein B mRNA levels (75 nM oligonucleotide): 84% | % inhibition of apolipoprotein B mRNA levels (150 nM oligonucleotide): 90% | % inhibition of apolipoprotein B mRNA levels (300 nM oligonucleotide): 88% | % INHIB 50 nm [1]: 87% | % INHIB 150 nm [2]: 88%

308652 (antisense AGGTTACCAGCCACATGCAG; 7-10-3 2'-MOE gapmer, phosphorothioate, chemistry not fully specified) [compound 308652]
% INHIB 50 nm [3]: 73% | % INHIB 150 nm [4]: 95%

308653 (antisense GCCTCAGTCTGCTTCGCACC; 7-10-3 2'-MOE gapmer, phosphorothioate, chemistry not fully specified) [compound 308653]
% INHIB 50 nm [3]: 73% | % INHIB 150 nm [4]: 89%

308654 (antisense GCCTCAGTCTGCTTCGCGCC; 8-10-2 2'-MOE gapmer, phosphorothioate, chemistry not fully specified) [compound 308654]
% INHIB 50 nm [1]: 81% | % INHIB 150 nm [2]: 90%

308655 (antisense AGGTTACCAGCCACATGCAG; 8-10-2 2'-MOE gapmer, phosphorothioate, chemistry not fully specified) [compound 308655]
% INHIB 50 nm [3]: 84% | % INHIB 150 nm [4]: 83%

308656 (antisense GCCTCAGTCTGCTTCGCACC; 8-10-2 2'-MOE gapmer, phosphorothioate, chemistry not fully specified) [compound 308656]
% INHIB 50 nm [3]: 37% | % INHIB 150 nm [4]: 97%

308657 (antisense GCCTCAGTCTGCTTCGCGCC; 9-10-1 2'-MOE gapmer, phosphorothioate, chemistry not fully specified) [compound 308657]
% INHIB 50 nm [1]: 61% | % INHIB 150 nm [2]: 78%

308658 (antisense AGGTTACCAGCCACATGCAG; 9-10-1 2'-MOE gapmer, phosphorothioate, chemistry not fully specified) [compound 308658]
% inhibition of apolipoprotein B mRNA levels (12.5 nM oligonucleotide): 29% | % inhibition of apolipoprotein B mRNA levels (37 nM oligonucleotide): 61% | % inhibition of apolipoprotein B mRNA levels (75 nM oligonucleotide): 73% | % inhibition of apolipoprotein B mRNA levels (150 nM oligonucleotide): 78% | % inhibition of apolipoprotein B mRNA levels (300 nM oligonucleotide): 90% | % INHIB 50 nm [3]: 86% | % INHIB 150 nm [4]: 78%

308659 (antisense GCCTCAGTCTGCTTCGCACC; 9-10-1 2'-MOE gapmer, phosphorothioate, chemistry not fully specified) [compound 308659]
% INHIB 50 nm [3]: 70% | % INHIB 150 nm [4]: 93%

308660 (antisense TGGTAGCCTCAGTCTGCTTC; 2-10-8 2'-MOE gapmer, phosphorothioate, chemistry not fully specified) [compound 308660]
% INHIB 50 nm [3]: 72% | % INHIB 150 nm [4]: 92%

308661 (antisense AGTCTGCTTCGCGCCTTCTG; 2-10-8 2'-MOE gapmer, phosphorothioate, chemistry not fully specified) [compound 308661]
% INHIB 50 nm [1]: 70% | % INHIB 150 nm [2]: 91%

308662 (antisense TGGTAGCCTCAGTCTGCTTC; 8-10-2 2'-MOE gapmer, phosphorothioate, chemistry not fully specified) [compound 308662]
% INHIB 50 nm [3]: 76% | % INHIB 150 nm [4]: 83%

308663 (antisense AGTCTGCTTCGCGCCTTCTG; 8-10-2 2'-MOE gapmer, phosphorothioate, chemistry not fully specified) [compound 308663]
% INHIB 50 nm [1]: 44% | % INHIB 150 nm [2]: 84%

331022 (antisense GCCTCAGTCTGCTTCGCAC; sugars from the 5' end e5 d10 e4, all phosphorothioate, methylation of C not given here) [compound 331022]
% Change in apolipoprotein B mRNA expression (10 nM, 24 hour (Table 41)): −33% | % Change in apolipoprotein B mRNA expression (50 nM, 24 hour (Table 41)): −49% | % Change in apolipoprotein B mRNA expression (150 nM, 24 hour (Table 41)): −87%

332769 (antisense GCCTCAGTCTGCTTCGCACC; all 2'-MOE, all phosphorothioate, methylation of C not given here) [compound 332769]
% Change in apolipoprotein B mRNA expression (50 nM, 24 hour (Table 40)): −11% | % Change in apolipoprotein B mRNA expression (150 nM, 24 hour (Table 40)): −14%

332770 (antisense GCCTCAGTCTTCTTCGCACC; sugars from the 5' end e5 d10 e5, all phosphorothioate, methylation of C not given here) [compound 332770]
% Change in apolipoprotein B mRNA expression (50 nM, 24 hour (Table 40)): +7% | % Change in apolipoprotein B mRNA expression (150 nM, 24 hour (Table 40)): −22%

332771 (antisense GCCTCAGTCTTATTCGCACC; sugars from the 5' end e5 d10 e5, all phosphorothioate, methylation of C not given here) [compound 332771]
% Change in apolipoprotein B mRNA expression (50 nM, 24 hour (Table 40)): +37% | % Change in apolipoprotein B mRNA expression (150 nM, 24 hour (Table 40)): +37%

332772 (antisense GCCTCAGTATTATTCGCACC; sugars from the 5' end e5 d10 e5, all phosphorothioate, methylation of C not given here) [compound 332772]
% Change in apolipoprotein B mRNA expression (50 nM, 24 hour (Table 40)): +99% | % Change in apolipoprotein B mRNA expression (150 nM, 24 hour (Table 40)): +84%

332773 (antisense GCCTCATTATTATTCGCACC; sugars from the 5' end e5 d10 e5, all phosphorothioate, methylation of C not given here) [compound 332773]
% Change in apolipoprotein B mRNA expression (50 nM, 24 hour (Table 40)): +75% | % Change in apolipoprotein B mRNA expression (150 nM, 24 hour (Table 40)): +80%

332774 (antisense GCCTCATTATTATTAGCACC; sugars from the 5' end e5 d10 e5, all phosphorothioate, methylation of C not given here) [compound 332774]
% Change in apolipoprotein B mRNA expression (50 nM, 24 hour (Table 40)): +62% | % Change in apolipoprotein B mRNA expression (150 nM, 24 hour (Table 40)): +66%

332775 (antisense GCCTCATTATTATTATCACC; sugars from the 5' end e5 d10 e5, all phosphorothioate, methylation of C not given here) [compound 332775]
% Change in apolipoprotein B mRNA expression (50 nM, 24 hour (Table 40)): −1% | % Change in apolipoprotein B mRNA expression (150 nM, 24 hour (Table 40)): +10%

332776 (antisense GCCTAATTATTATTATCACC; sugars from the 5' end e5 d10 e5, all phosphorothioate, methylation of C not given here) [compound 332776]
% Change in apolipoprotein B mRNA expression (50 nM, 24 hour (Table 40)): +10% | % Change in apolipoprotein B mRNA expression (150 nM, 24 hour (Table 40)): +20%

332777 (antisense GCCTCAGTCTGCTTCGCA; sugars from the 5' end e5 d10 e3, all phosphorothioate, methylation of C not given here) [compound 332777]
% Change in apolipoprotein B mRNA expression (10 nM, 24 hour (Table 41)): −27% | % Change in apolipoprotein B mRNA expression (50 nM, 24 hour (Table 41)): −53% | % Change in apolipoprotein B mRNA expression (150 nM, 24 hour (Table 41)): -80%

332778 (antisense GCCTCAGTCTGCTTC; sugars from the 5' end e5 d10, linkages s4 o1 s9 (s phosphorothioate, o phosphodiester), methylation of C not given here) [compound 332778]
% Change in apolipoprotein B mRNA expression (10 nM, 24 hour (Table 41)): −11% | % Change in apolipoprotein B mRNA expression (50 nM, 24 hour (Table 41)): −20% | % Change in apolipoprotein B mRNA expression (150 nM, 24 hour (Table 41)): −58%

332780 (antisense CCTCAGTCTGCTTCGCAC; sugars from the 5' end e4 d10 e4, all phosphorothioate, methylation of C not given here) [compound 332780]
% Change in apolipoprotein B mRNA expression (10 nM, 24 hour (Table 41)): −3% | % Change in apolipoprotein B mRNA expression (50 nM, 24 hour (Table 41)): −43% | % Change in apolipoprotein B mRNA expression (150 nM, 24 hour (Table 41)): −74%
